According to publication PMC10574143, “Exploring the Solubility Limits of Edaravone in Neat Solvents and Binary Mixtures: Experimental and Machine Learning Study” (Molecules, 2023):

Assays:
[1] = poor aqueous solubility; no reference given; cited from earlier work
[2] = solubility data curation, three-parameter van't Hoff consensus; assay type: physicochemical; settings: methanol, van't Hoff fit to data of refs 21, 26
Excerpt: The dataset characterizing edaravone solubility is an accumulation of values collected from available literature sources augmented with a series of new measurements reported in this paper, which are summarized in Supplementary Section S1. There are three accounts documenting the temperature-dependent solubility of the titled compound in fifteen neat solvents including alcohols, esters, some aprotic solvents, and water. Moreover, nine binary solvent mixtures were used for EDA dissolution measurements at a range of temperatures with a variety of binary compositions. […] First of all, one can notice serious divergences in the reported solubility values for some systems. This inconsistency prohibits the direct use of such a collection for the training of models due to the inherent noise in the dataset, which is a frequently occurring problem intrinsic to diverse measurement protocols. […] Secondly, the solubility space is not represented uniformly due to different numbers of measurements for dissimilar temperature ranges and concentrations of solvent mixtures, which might overrepresent those systems studied more extensively in the dataset. Finally, the main focus in solubility determination was narrowed to polar protic solvents, with very limited representation of non-protic or diprotic solvents. To address the first two issues, the final collection was cured using commonly accepted model equations by fitting their parameters based on experimental mole fractions. Here, the three-parameter van’t Hoff and Jouyban–Acree equations were used for neat and binary solvents, respectively. In addition, temperature standardization was performed for a uniform representation of solubility in the final dataset. […] The complete list of experimental solubility data is provided in the Supporting Materials (see Section S2). As can be directly inferred from the plots presented in Figure 1, incongruences appear not only in the solubility values but also in their temperature trends. […] Since only an arbitrary decision would allow the rejection of either of the measurement series, the final solubility dataset was constructed based on the predictions of the van’t Hoff equation, parametrized using all available experimental data. Moreover, temperature normalization was adopted by accepting data between 0 °C and 50 °C with 5 °C intervals. […] Fortunately, the majority of saturated EDA systems studied suffered experimentally from much smaller deviations, as detailed in the Supplementary Materials (see Section S2.1), and the ones presented in Figure 1 show the worst extremes.
The datasets used for model development underwent curing and unification. All solubility data in neat solvents were analyzed using a simple thermodynamic model relying on the fundamental van’t Hoff equation extended for the temperature dependence of the equilibrium constant by a polynomial fit. The following equation (1) lnxEcur=A+B/T+C/T^2 has three adjustable parameters, the values of which were computed by minimizing root mean square deviations (RMSD) between experimental and computed values. The collection of obtained parameter values for all analyzed systems (including literature data), along with graphical illustrations, is provided in the Supplementary Materials (see Section S2, Table S3 and Figure S2).

In the case of CC1=NN(c2ccccc2)C(=O)C1 [Edaravone, 5-methyl-2-phenyl-4H-pyrazol-3-one], the “Biopharmaceutics Classification System (BCS) category” value [1] is listed as “Class IV”, the “log(x1consensus)” value ([2]; x2*=1.00, 0 °C) is listed as -1.93 and the “log(x1consensus)” value ([2]; x2*=1.00, 5 °C) is listed as -1.87. The “log(x1consensus)” value ([2]; x2*=1.00, 10 °C) was -1.80, the “log(x1consensus)” value ([2]; x2*=1.00, 15 °C) was -1.73 and the “log(x1consensus)” value ([2]; x2*=1.00, 20 °C) was -1.66.
